Structures can show the parent of a compound that is named as a salt. Where two headings read alike, the source gives them in different places.
How the values were obtained:
[1] = test system: post-cell stages of spermatogenesis (male germ cells); conditions: cited from earlier work; for Lethal/tested mutations: number of lethal mutations among those tested, for chlorambucil includes mutations with evidence for deletion
[2] = test system: male mice; experiment: Sterility of male mice after ENU treatment; assay type: in vivo
Description: Mutations in the DNA of the premeiotic spermatogonia of male mice can be induced with the DNA alkylating agent ethylnitrosourea (ENU). Typically, 3 separate doses of 100 mg/kg body weight ENU are injected interperitoneally, with each injection separated by a one week interval. The animals undergo a period of sterility (usually 8-14 weeks), after which they can be mated to nonmutagenized females to produce offspring (the F1 generation) which carry heterozygous mutations in their genome (FIG. 1).
Each animal carries the same set of heterozygous mutations throughout both somatic and germ tissue. To generate large numbers of offspring for a paired sample set, 300 males are treated with ENU. Approximately 100 of these mice will be permanently sterile; the remaining 200 are permanently mated with 2 females each. […] In this way a set of paired samples comprised of over 30,000 animals can be produced within a year, including the time required to establish the ENU treated breeding males. The process can be scaled up by ENU treatment and breeding of additional male mice.

[3] = test system: mice; conditions: cited from earlier work; for mutation frequency compared with ENU: other chemical mutagens versus ENU (approximately 1 per 1000 mice)
[4] = test system: zebrafish; conditions: ENU mutagenesis; cited from earlier work
[5] = experimental minus historical control 43/801,406, for period of maximum response, at the listed exposure
[6] = rate relative to exposure in mol per kg body weight

Compound | Induced mutation rate per locus [1, 5] | Lethal/tested mutations [1] | Induced mutation rate per locus per mol [1, 6] [per mol] | mutation frequency compared with ENU [3] | other results
C=CC(N)=O [AA, acrylamide monomer] | – | – | – | – | Induced mutation rate per locus ([1]; mouse, in vivo): 18.2 × 10^−5; Induced mutation rate per locus per mol ([1]; mouse, in vivo): 0.1 per mol
O=C(O)CCCc1ccc(N(CCCl)CCCl)cc1 [Chl, chlorambucil] | 127.3 × 10^−5 | 1/4 | 38.7 | – | –
O=P1(N(CCCl)CCCl)NCCCO1 (stereo not drawn) [Cp, cyclophosphamide] | 24.3 × 10^−5 | 3/5 | 0.5 | – | –
CCN(N=O)C(N)=O [ENU, N-ethyl-N-nitrosourea] | 10.6 × 10^−5 | 0/5 | 0.2 | – | period of sterility ([2]; male mice, 3 doses of 100 mg/kg ENU interperitoneally at one week intervals): 8-14 weeks; mice permanently sterile ([2]; of 300 males treated with ENU): Approximately 100 mice; frequency of mutations, determined for numerous genes ([3]; for any given gene screened, phenotype-based): 0.5-1.5 mutant mice per 1000 mice; frequency of a mutation in any given gene ([3]; offspring of ENU mutagenized male mice, based on phenotypic assays): approximately 1 per 1000 mice; locus-specific mutation frequency [4]: 1/1000
CCOS(=O)(=O)OCC [Et2SO4, diethyl sulfate] | – | 4/4 | – | – | Induced mutation rate per locus ([1]; mouse, in vivo): 11.2 × 10^−5; Induced mutation rate per locus per mol ([1]; mouse, in vivo): 0.1 per mol
CCOS(C)(=O)=O [EtMs, ethyl methanesulforate] | 20.9 × 10^−5 | 0/1 | 0.1 | – | –
CN(N=O)C(N)=O [MNU, N-methyl N-nitrosourea] | 90.2 × 10^−5 | 0/17 | 1.2 | same type of mutation frequency | –
COS(C)(=O)=O [MeMs, methyl methanesulforate] | 24.0 × 10^−5 | 10/14 | 0.7 | same type of mutation frequency | –
CNNCc1ccc(C(=O)NC(C)C)cc1.Cl [Pre, phocarbazine hydrochloride] | 21.6 × 10^−5 | – | 0.1 | same type of mutation frequency | –

Source: US20010056582A1, “PAIRED MUTATIONS” (priority 1997, published 2001)
